Assay results: the supplement of paper PMC10331698
± gives the standard deviation of the averaged measurements.

How the values were obtained:
Test in all cases: level (log10 ratio to DMSO vehicle control); higher = higher biomarker level / cell amount than vehicle control
Conditions in all cases: in DMSO
[1] = compound: C=CC(=O)OCCC(F)(F)C(F)(F)C(F)(F)C(F)(F)F [2-(Perfluorobutyl)ethyl acrylate]
Procedure: (§1)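 BioMAP Diversity Plus panel of 12 human primary cell co-culture systems (3C, 4H, LPS, SAg, BT, BF4T, BE3C, CASM3C, HDF3CGF, KF3CT, MyoF, Mphg). Compounds were added 1 h before stimulation and left for 24 h (MyoF 48 h; BT 72 h for soluble read-outs or 6 d for IgG). Biomarkers were read by ELISA, cytotoxicity by SRB, PBMC viability and proliferation by Alamar Blue. Each well value was divided by the mean of 8 DMSO control wells on the same plate and log10 transformed; duplicate blinded samples were tested at 4 concentrations.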

[2] = compound: N=C(N)C(F)(F)C(F)(F)C(F)(F)C(F)(F)C(F)(F)C(F)(F)C(F)(F)F [Perfluorooctanamidine]
Procedure: as §1

[3] = compound: O=C(O)C(F)(F)C(F)(F)C(F)(F)C(F)(F)C(F)(F)C(F)(F)C(F)(F)C(F)(F)C(F)(F)C(F)(F)C(F)(F)C(F)(F)F [Perfluorotridecanoic acid]
Procedure: as §1

[4] = compound: O=C(O)C(F)(F)C(F)(F)C(F)(F)C(F)(F)C(F)(F)F [Perfluorohexanoic acid]
Procedure: as §1

[5] = compound: O=P(O)(O)CCC(F)(F)C(F)(F)C(F)(F)C(F)(F)C(F)(F)C(F)(F)C(F)(F)C(F)(F)F [((Perfluorooctyl)ethyl)phosphonic acid]
Procedure: as §1

[6] = compound: O=S(=O)(O)C(F)(F)C(F)(F)C(F)(F)C(F)(F)C(F)(F)C(F)(F)C(F)(F)C(F)(F)F [Potassium perfluorooctanesulfonate]
Procedure: as §1

Row | Test System | level (log10) ([1]; 6700 nM) | level (log10) ([1]; 20000 nM) | level (log10) ([1]; 60000 nM) | level (log10) ([2]; 6700 nM) | level (log10) ([2]; 20000 nM) | level (log10) ([2]; 60000 nM) | level (log10) ([3]; 1500 nM) | level (log10) ([3]; 4400 nM) | level (log10) ([3]; 13000 nM) | level (log10) ([3]; 40000 nM) | level (log10) ([4]; 6700 nM) | level (log10) ([4]; 20000 nM) | level (log10) ([4]; 60000 nM) | level (log10) ([5]; 6700 nM) | level (log10) ([5]; 20000 nM) | level (log10) ([5]; 60000 nM) | level (log10) ([6]; 6700 nM) | level (log10) ([6]; 20000 nM) | level (log10) ([6]; 60000 nM)
1 | HDF3CGF:CXCL8/IL-8 | -0.003 ± 0.011 | 0 ± 0.0028 | -0.007 ± 0.021 | 0.006 ± 0.0014 | 0.0135 ± 0.005 | 0.007 | 0.007 | 0.004 ± 0.0014 | 0.012 ± 0.0014 | 0.0165 ± 0.015 | -0.003 ± 0.0057 | 0.006 ± 0.0014 | 0.005 ± 0.0071 | -0.0065 ± 0.022 | -0.005 ± 0.0057 | -0.0485 ± 0.011 | -0.007 ± 0.0085 | -0.0065 ± 0.0035 | 0.004 ± 0.013
2 | lMphg:CD106/VCAM-1 | -0.009 ± 0.0099 | -0.0035 ± 0.028 | -0.0405 ± 0.037 | -0.006 ± 0.0028 | -0.008 ± 0.0057 | -0.08 | -0.018 ± 0.0014 | -0.0305 ± 0.012 | -0.0715 ± 0.018 | -0.384 ± 0.1 | 0.0065 ± 0.016 | -0.0055 ± 0.011 | 0.0005 ± 0.018 | -0.013 ± 0.016 | -0.0455 ± 0.018 | -0.055 ± 0.0014 | -0.012 ± 0.018 | 0.0015 ± 0.005 | -0.038 ± 0.017
3 | CASM3C:M-CSF | -0.0165 ± 0.019 | -0.0355 ± 0.022 | -0.021 ± 0.044 | -0.0095 ± 0.021 | -0.025 ± 0.028 | 0.034 | 0.0075 ± 0.054 | 0.0255 ± 0.005 | 0.0565 ± 0.039 | 0.095 ± 0.0085 | -0.0185 ± 0.019 | -0.0125 ± 0.013 | 0.0105 ± 0.0092 | -0.0145 ± 0.011 | -0.008 ± 0.011 | 0.045 ± 0.04 | 0.003 ± 0.028 | 0.016 ± 0.016 | -0.007 ± 0.064
4 | 3C:CD106/VCAM-1 | -0.0335 ± 0.005 | -0.0715 ± 0.039 | -0.14 ± 0.04 | -0.017 ± 0.028 | -0.037 ± 0.031 | -0.088 | 0.0125 ± 0.012 | -0.0055 ± 0.016 | -0.0185 ± 0.019 | -0.0165 ± 0.018 | -0.002 ± 0.018 | -0.0025 ± 0.029 | 0.005 ± 0.044 | -0.0115 ± 0.016 | -0.0345 ± 0.005 | -0.054 ± 0.0042 | 0.001 ± 0.016 | 0.013 ± 0.023 | 0.0375 ± 0.037
5 | 3C:CD142/Tissue Factor | -0.0105 ± 0.043 | -0.127 ± 0.034 | -0.381 ± 0.016 | -0.02 ± 0.018 | -0.0105 ± 0.012 | -0.014 | 0.034 ± 0.023 | 0.024 ± 0.042 | 0.0425 ± 0.025 | 0.0615 ± 0.00071 | 0.011 ± 0.0085 | -0.0135 ± 0.0092 | 0.0005 ± 0.012 | 0.025 ± 0.03 | 0.0455 ± 0.015 | 0.101 ± 0.023 | -0.018 ± 0.024 | -0.0065 ± 0.04 | 0.049 ± 0.02
6 | CASM3C:LDLR | -0.013 ± 0.0099 | -0.0105 ± 0.0021 | 0.01 ± 0.042 | 0.012 ± 0.013 | 0.036 ± 0.0085 | 0.108 | -0.001 ± 0.013 | 0.013 ± 0.02 | 0.0105 ± 0.025 | -0.021 ± 0.0028 | 0.001 ± 0.0028 | -0.0065 ± 0.029 | -0.0025 ± 0.039 | -0.0075 ± 0.0021 | -0.005 ± 0.0042 | 0.0505 ± 0.039 | 0.021 ± 0.0014 | 0.0275 ± 0.019 | -0.0205 ± 0.036
7 | HDF3CGF:CXCL11/I-TAC | -0.045 ± 0.062 | -0.124 ± 0.023 | -0.317 ± 0.087 | 0.024 ± 0.025 | 0.0285 ± 0.029 | -0.119 | -0.072 ± 0.014 | -0.074 ± 0.055 | -0.0805 ± 0.077 | -0.18 ± 0.034 | 0.0045 ± 0.005 | 0.0005 ± 0.021 | -0.021 ± 0.031 | 0.084 ± 0.0014 | 0.064 ± 0.018 | -0.0155 ± 0.035 | 0.0005 ± 0.019 | -0.0375 ± 0.015 | -0.135 ± 0.0028
8 | lMphg:M-CSF | -0.0155 ± 0.029 | -0.011 ± 0.028 | -0.001 ± 0.018 | -0.0155 ± 0.016 | -0.0015 ± 0.0021 | -0.001 | -0.005 ± 0.0057 | -0.006 ± 0.016 | 0.002 ± 0.0099 | -0.011 ± 0.0099 | 0.0005 ± 0.028 | -0.011 ± 0.028 | -0.023 ± 0.0014 | -0.0235 ± 0.0064 | -0.039 ± 0.0057 | -0.0405 ± 0.0078 | -0.0005 ± 0.005 | -0.004 ± 0.0057 | 0.035 ± 0.016
9 | CASM3C:CXCL8/IL-8 | -0.0045 ± 0.0064 | -0.009 ± 0.0014 | -0.028 ± 0.014 | 0.011 ± 0.017 | 0.0075 ± 0.0092 | 0.053 | 0.002 ± 0.037 | -0.003 ± 0.025 | -0.014 ± 0.037 | -0.0155 ± 0.0021 | 0.0005 ± 0.021 | 0.007 ± 0.0099 | 0.0265 ± 0.028 | -0.01 ± 0.02 | 0 ± 0.024 | 0.023 ± 0.048 | 0.001 ± 0.027 | 0.023 ± 0.018 | 0.048 ± 0.04
10 | lMphg:sIL-10 | -0.0435 ± 0.011 | -0.07 ± 0.021 | -0.0715 ± 0.054 | -0.051 ± 0.018 | -0.118 ± 0.0057 | -0.121 | -0.044 ± 0.0057 | -0.039 ± 0.0042 | -0.022 ± 0.013 | -0.044 ± 0.02 | -0.0285 ± 0.0092 | -0.0375 ± 0.046 | -0.0945 ± 0.021 | -0.0215 ± 0.012 | -0.062 ± 0.017 | -0.263 ± 0.025 | 0.015 ± 0.0014 | -0.0445 ± 0.0092 | -0.647 ± 0.025
11 | BE3C:tPA | -0.036 ± 0.041 | -0.056 ± 0.0014 | -0.13 ± 0.018 | 0 ± 0.0028 | -0.006 ± 0.0014 | 0.019 | 0.096 ± 0.011 | 0.115 ± 0.0021 | 0.0955 ± 0.032 | 0.03 ± 0.0071 | -0.032 ± 0.054 | -0.0405 ± 0.016 | -0.046 ± 0.018 | 0.123 ± 0.005 | 0.191 ± 0.0014 | 0.202 ± 0.032 | 0.115 ± 0.0035 | -0.101 ± 0.027 | -0.165 ± 0.03
12 | BE3C:uPA | 0.0075 ± 0.032 | -0.0035 ± 0.022 | -0.0175 ± 0.015 | -0.008 ± 0.011 | -0.0095 ± 0.0078 | 0.004 | -0.0005 ± 0.00071 | 0.008 ± 0.0099 | -0.01 ± 0.02 | -0.0085 ± 0.046 | -0.03 ± 0.013 | -0.01 ± 0.018 | 0.0025 ± 0.016 | 0.014 ± 0.0014 | 0.022 ± 0.0014 | 0.023 ± 0.0014 | 0.0125 ± 0.0092 | -0.028 ± 0.0099 | -0.036 ± 0.016
13 | BE3C:MMP-9 | -0.004 ± 0.0071 | -0.006 ± 0.0014 | -0.028 ± 0.0085 | -0.0115 ± 0.005 | -0.015 ± 0.023 | -0.001 | -0.0105 ± 0.0035 | 0.0005 ± 0.023 | -0.0065 ± 0.0035 | -0.0235 ± 0.00071 | -0.0155 ± 0.018 | -0.005 ± 0.0071 | 0.0145 ± 0.013 | -0.0155 ± 0.026 | -0.006 ± 0.044 | 0.014 ± 0.016 | -0.0035 ± 0.012 | -0.13 ± 0.013 | -0.126 ± 0.024
14 | CASM3C:IL-6 | -0.023 ± 0.0014 | -0.0425 ± 0.0021 | -0.076 ± 0.034 | -0.046 ± 0.023 | -0.041 ± 0.035 | 0.041 | 0.005 ± 0.062 | -0.047 ± 0.0028 | -0.059 ± 0.028 | -0.0815 ± 0.08 | -0.0075 ± 0.042 | -0.0155 ± 0.0021 | -0.0125 ± 0.053 | -0.0215 ± 0.06 | -0.004 ± 0.025 | 0.0865 ± 0.032 | -0.025 ± 0.0042 | -0.0285 ± 0.016 | -0.0425 ± 0.083
15 | lMphg:SRB-Mphg | 0.012 ± 0.011 | 0.0075 ± 0.016 | -0.006 ± 0.021 | 0.0145 ± 0.011 | 0.009 ± 0.014 | 0.007 | 0.003 ± 0.023 | 0.004 ± 0.0071 | -0.0155 ± 0.022 | 0.0125 ± 0.019 | -0.0005 ± 0.011 | 0.003 ± 0.0071 | 0.0115 ± 0.0035 | 0.0005 ± 0.015 | -0.0055 ± 0.00071 | -0.0515 ± 0.022 | 0.0005 ± 0.005 | 0.0005 ± 0.011 | 0.0115 ± 0.005
